Data on three compounds can be found in patent US20220401481A1, “DOSING REGIMENS FOR THE MOBILIZATION OF HEMATOPOIETIC STEM AND PROGENITOR CELLS” (Magenta Therapeutics, Inc., priority 2019, published 2022).

Several values for one entry are separate records, joined by “and”; a condition that tells them apart may be missing. Equal entries are not always repeated. Where two headings read alike, the source gives them in different places.

Test [1] has as its system CD34+CD90+CD45RA− cells. The experiment in a line: Phase 1 clinical trial: mobilization of CD34+CD90+CD45RA− cells into peripheral blood (flow cytometry).
In test [2] the target is T1, CXCR2 (Homo sapiens, UniProt P25025).
T1 construct: endogenous in cells; host or cells: peripheral blood neutrophils of trial subjects (in vivo dosing, ex vivo measurement)
T1 sequence (P25025 1-360): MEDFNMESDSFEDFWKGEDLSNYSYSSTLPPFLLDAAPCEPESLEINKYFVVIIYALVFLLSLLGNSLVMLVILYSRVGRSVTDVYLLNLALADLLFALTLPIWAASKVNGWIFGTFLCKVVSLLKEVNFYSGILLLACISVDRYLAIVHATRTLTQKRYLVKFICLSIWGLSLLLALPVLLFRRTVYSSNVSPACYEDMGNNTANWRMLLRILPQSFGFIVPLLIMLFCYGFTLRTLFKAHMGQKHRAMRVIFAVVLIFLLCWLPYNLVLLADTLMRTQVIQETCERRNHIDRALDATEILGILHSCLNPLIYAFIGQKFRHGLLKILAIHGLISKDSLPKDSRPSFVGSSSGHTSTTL
The experiment in a line: Phase 1 clinical trial: CXCR2 expression on peripheral blood neutrophils. The format is in vivo. The method, then: Lines from bottom to top at 6 hrs post-administration represent 0.3 mg/kg, 0.15 mg/kg, 0.075 mg/kg, 0.03 mg/kg, 0.015 mg/kg, […], respectively.

In test [3] the test system is MMP-9. The experiment in a line: Phase 1 clinical trial: plasma MMP-9 and TIMP-1 by sandwich immunoassay. The test is classed as in vivo, human. The note with it: monotherapy, all six doses. How it is done:
FIGS. 6A and 6B show the plasma levels of MMP-9 and molar ratio of MMP-9:TIMP-1, respectively, over the course of 24 hours following MGTA-145 monotherapy. MMP-9 is an enzyme involved in the breakdown of extracellular matrix and indicative of neutrophil migration whereas TIMP-1 blocks MMP-9 mediated migration. Therefore, an increase in MMP-9 or an increase in MMP-9:TIMP-1 ratio is indicative of increased neutrophil mobilization. […] The plasma levels of MMP-9 then decreased towards initial concentrations over the course of 24 hours.

In test [4] the test system is hematopoietic stem and progenitor cell mobilization. The note with it: cited from earlier work.
In test [5] the test system is CD34+ cells. The experiment in a line: Phase 1 clinical trial: mobilization of CD34+ cells into peripheral blood (multicolor flow cytometry). The note with it: for % ≥40/μL: plerixafor.
The subject of test [6] is relative engraftment (CRU). The experiment in a line: Primary and secondary transplantation of mobilized mouse cells at limit dilution (CRU). The note with it: compared to the other cohorts. The test is classed as in vivo, mice.
Text: Mice (CD45.1) were mobilized according to the scheme shown in FIG. 24 and mobilized cells transplanted into CD45.2 mice at limit dilution.
The subject of test [7] is neutrophil activation markers (L-selectin, CD11b, CD18, CD66). The experiment in a line: Phase 1 clinical trial: neutrophil activation markers by flow cytometry. The format is in vivo, human. The note with it: monotherapy. An excerpt: G-CSF, the traditional therapy of choice for mobilization of neutrophils, enhances neutrophil activation, as measured by CD11b and CD18, but this has been identified to be problematic, for example, in patients with sickle cell disease where activated neutrophils adhere to the endothelium, thereby increasing the risk of severe and life-threatening complications such as vaso-occlusive crises. […] In contrast, the administration of MGTA-145 monotherapy (across all six doses) induces less than a 2-fold change relative to baseline for the neutrophil activation markers of CD11b and CD18.

In test [8] the test system is white blood cells (WBCs). Description: Phase 1 clinical trial: mobilization of white blood cells (automated hematology analyzer). The note with it: monotherapy.
Experimental: (§1) The dose of MGTA-145 was one of 0.0075 mg/kg, 0.015 mg/kg, 0.03 mg/kg, 0.075 mg/kg, 0.15 mg/kg, or 0.3 mg/kg. […] The dose of MGTA-145 was one of 0.015 mg/kg, 0.03 mg/kg, 0.075 mg/kg, or 0.15 mg/kg. […] The dose of MGTA-145 was one of 0.03 mg/kg or 0.075 mg/kg.
(§2) Mobilization of white blood cells (WBCs), neutrophils, lymphocytes, basophils, and eosinophils was quantified by automated hematology analyzer.
Test [9] deals with neutrophils. Description: Phase 1 clinical trial: mobilization of neutrophils (automated hematology analyzer). The note with it: monotherapy.
Experimental: as §1, §2
Test [10] concerns T cells, B cells and NK cells. The note with it: cited from earlier work.
Test [11] concerns CD34+ cells. The note with it: historical plerixafor alone data, Devine et al., Blood 2008 (n=25); cited from earlier work.
Setting [12] is: Part A monotherapy, the other doses.
Where [13] appears, read: Part A, MGTA-145 on Day 1, 0.03 mg/kg (n=4).
Where [14] appears, read: Part A, MGTA-145 on Day 1, 0.3 mg/kg (n=4).
The mark [15] stands for this setting: higher doses (0.075, 0.15, 0.3 mg/kg), 2 hours post administration.
The mark [16] stands for this setting: lower doses (0.0075, 0.015, 0.03 mg/kg), between 1 and 2 hours post administration.
Where [17] appears, read: Chen et al., 2019, plerixafor N = 50+, median yield of 2 LP.
Where [18] appears, read: Devine et al, 2008, median yield of 1 LP, plerixafor N = 24, G-CSF N = 8.
The mark [19] stands for this setting: Part C, first day, combination (0.03 or […]) 8 patients, plerixafor alone.
Where [20] appears, read: Part C, placebo + plerixafor on Day 2 (n=2).

As for “MGTA-145: CXCR2 agonist; truncated Gro-β with deletion of the first four N-terminal amino acids (SEQ ID NO: 2)”, the “Time of peak CD34+CD90+CD45RA− mobilization post administration” value in test [1] (Part A monotherapy) was 30 min. Besides, in test [1] (Part A monotherapy, 0.03 mg/kg), the “Fold increase of CD34+CD90+CD45RA− cells” value is reported as ~8.3 fold and the “Peak concentration of CD34+CD90+CD45RA− cells” value was ~3 cells/μL. In test [1] (setting [12]), the “Fold increase of CD34+CD90+CD45RA− cells” value is on record as 2-3.5 fold and the “Peak concentration of CD34+CD90+CD45RA− cells” value is 1-1.6 cells/μL. Besides, the “CXCR2 expression recovery prior to the second dose” value in test [2] (0.07 mg/kg, staggered dosing, two consecutive days) is reported as ~80 % of baseline. Besides, the “CXCR2 on peripheral blood neutrophils” value in test [2] (monotherapy, followed by recovery over 24 hours) is listed as “rapid downregulation”. Also, in test [3], the “Molar ratio of MMP-9:TIMP-1” value is reported as “rapid increase 30 minutes post-administration” and the “Plasma levels of MMP-9” value is “increased sharply within 30 minutes post-administration”. Also, the “Potency to induce hematopoietic stem and progenitor cell mobilization relative to Gro-β” value in [4] (described in U.S. Pat. No. 6,080,398) is listed as “superior to that of Gro-β by multiple orders of magnitude”. Further, in test [5] (Part A monotherapy, 0.03 mg/kg), the “Fold increase of CD34+ cells” value amounted to 7 fold and the “Peak concentration of CD34+ cells” value is ~10 cells/μL. Also, the “Time of peak CD34+ mobilization post administration” value in test [5] (Part A monotherapy, across the six doses (0.0075-0.3 mg/kg)) is “about 30 minutes”. For the same compound, the “Fold increase of CD34+ cells” value in [5] (setting [12]) is 2-3 fold. The “Peak concentration of CD34+ cells” value in [5] (Part A monotherapy, the other doses (0.0075, 0.015, 0.075, 0.15, 0.3 mg/kg)) is ~5 cells/μL. Besides, in test [5] (setting [13]), the “Peak CD34+ (#/μL) Median (range)” value is 12 (2-19) #/μL and the “Percent ≥20/μL” value is on record as 0 (0/4) %. Further, in test [5] (setting [14]), the “Peak CD34+ (#/μL) Median (range)” value was 3 (3-13) #/μL and the “Percent ≥20/μL” value is 0 (0/4) %. Moreover, in test [6], the “Engraftment rates, secondary transplantation” value was “vastly improved engraftment rates”. Besides, in test [7] (all doses except the highest (0.3 mg/kg)), the “Fold change relative to baseline, CD66” value is < 2 fold. Further, in test [7] (all six doses), the “Fold change relative to baseline, CD11b and CD18” value was < 2 fold; the “Fold change relative to baseline, L-selectin” value was < 2 fold. The “Initial plateau of WBC mobilization” value in [8] (setting [15]) is reported as 6-10 ×10^3 cells/μL. In test [8] (setting [16]), the “Peak mobilization of WBCs” value is reported as 15-17 ×10^3 cells/μL. Besides, the “Initial plateau of neutrophil mobilization” value in [9] (setting [15]) is listed as 5-8 ×10^3 cells/μL. In addition, the “Peak mobilization of neutrophils” value in [9] (setting [16]) is recorded as 13-15 ×10^3 cells/μL.

On to “Gro-β T N65D: Gro-β T with aspartic acid in place of asparagine at position 65, SEQ ID NO: 4 [reference compound]”, for which the “Potency (hematopoietic stem and progenitor cell mobilization) relative to Gro-β T” value in [4] (described in U.S. Pat. No. 6,447,766) was “substantially greater than that of Gro-β T”.

For `c1cc(CN2CCCNCCNCCCNCC2)ccc1CN1CCCNCCNCCCNCC1` [Plerixafor, 1,1′-[1,4-phenylenebis(methylene)]-bis-1,4,8,11-tetra-azacyclotetradecane], in test [10] (setting [17]), the “CD3+ in graft, Median (range)” value is 6.0 (2.7-13.0) ×10^8/kg; the “CD4+ in graft, Median (range)” value is 3.6 (2.0-9.4) ×10^8/kg; the “CD8+ in graft, Median (range)” value was 2.2 (0.5-5.0) ×10^8/kg; the “CD19+ in graft, Median (range)” value is 1.5 (0.2-7.4) ×10^8/kg. For the same compound, in [10] (setting [17]), the “CD34+ in graft, Median (range)” value was 4.7 (0.9-9.6) ×10^6/kg and the “CD56+ in graft, Median (range)” value is listed as 0.4 (0.0-1.1) ×10^8/kg. In test [10] (setting [18]), the “CD3+ in graft, Median (range)” value is on record as 4.6 (1.5-7.8) ×10^8/kg; the “CD4+ in graft, Median (range)” value is recorded as 3.2 (1-5.7) ×10^8/kg; the “CD8+ in graft, Median (range)” value is recorded as 1.3 (0.4-3.4) ×10^8/kg; the “CD34+ in graft, Median (range)” value is on record as 2.9 (1.2-6.3) ×10^6/kg. Moreover, the “CD56+ in graft, Median (range)” value in [10] (setting [18]) is on record as 0.3 (0.1-1.0) ×10^8/kg. The “CD19+ in graft, Median (range)” value in [10] (Devine et al, 2008, median yield of 1 LP, plerixafor N = 24) is 1.0 (0.2-2.4) ×10^8/kg. Further, the “CD34+CD90+CD45RA− cells, median peak” value in test [1] (plerixafor alone) turned out to be 8 cells/μL. Moreover, in test [5] (2-8 hours post plerixafor dose, plerixafor alone), the “CD34+ AUC2-8h Median (range)” value is recorded as 102 (61-341). For the same compound, the “% ≥40/μL” value in test [5] (Part B) was 21% (3/16). The “Peak CD34+ (#/μL) Median (range)” value in [5] (Part B, plerixafor (placebo + plerixafor) on Day 1) is reported as 26 (13-78) #/μL. For the same compound, in test [5] (setting [19]), the “Number of patients with peak CD34+ count of at least 20 cells per microliter” value is “none” and the “Number of patients with peak CD34+ count of at least 40 cells per microliter” value is given as “none”. For the same compound, in [5] (setting [20]), the “Peak CD34+ (#/μL) Median (range)” value is 17 (12-22) #/μL and the “Percent ≥20/μL” value was 50 (1/2) %. Moreover, the “Peak CD34+ (#/μL) Median (range)” value in [5] (Part C, plerixafor (placebo + plerixafor) on Day 1 (n=2)) is reported as 18 (16-20) #/μL. Further, the “% ≥40/μL” value in test [5] (Part C, first day (n=2)) is on record as 0% (0/2). Besides, in test [5] (Pooled B + C), the “% ≥40/μL” value is reported as 14% (2/14). In addition, the “Peak CD34+ (#/μL) Median (range)” value in test [5] (Pooled B + C, plerixafor (placebo + plerixafor) on Day 1) was 20 (13-78) #/μL and 23 (13-78) #/μL. Moreover, in test [5] (plerixafor alone), the “Peak CD34+/μL (FC vs. baseline) Median (range)” value was 15 (8-62) fold and the “Tmax of peak CD34+ level Median (range)” value was 8 (3-12) h. Also, in test [5] (plerixafor alone (n=14)), the “Patients with peak CD34+ ≥20 cells/μL” value turned out to be 50% and the “Patients with peak CD34+ ≥40 cells/μL” value was 14%. For the same compound, in test [11], the “Patients with peak CD34+ ≥20 cells/μL” value is 28% and the “Patients with peak CD34+ ≥40 cells/μL” value is listed as 4%.
